Calls of active or inactive are those of the source. The calls are words filed in the database; no cut-off is given here.
Legend:
C6 = assay: Cytotoxicity against rat C6 after 24 hrs by MTT assay; type: functional, cell-based
RBL-2H3 = assay: Cytotoxicity against rat RBL2H3 after 24 hrs by MTT assay; type: functional, cell-based; conditions: RBL-2H3, 24 h

| SMILES | Activity (C6) | IC50 (RBL-2H3) [µg/mL] |
| --- | --- | --- |
| CC(C)CC(=O)C[C@](C)(O)[C@H]1CC[C@H]2[C@@H]3C[C@H](O[C@@H]4O[C@H](C)[C@@H](O)[C@H](O[C@@H]5O[C@H](CO)[C@@H](O[C@@H]6O[C@H](C)[C@@H](O)[C@H](O)[C@H]6O[C@@H]6O[C@H](C)[C@H](O)[C@H](O)[C@H]6O)[C@H](O)[C@H]5O[C@@H]5O[C@H](C)[C@@H](O)[C@H](O)[C@H]5O)[C@H]4O)[C@H]4C[C@@H](OS(=O)(=O)[O-])CC[C@]4(C)C3=CC[C@@]21C.[Na+] [LUIDIAQUINOSIDE] | inactive | 31.3 |
| CC(C)CC(=O)C[C@](C)(O)[C@H]1CC[C@H]2[C@@H]3C[C@H](O[C@@H]4O[C@H](C)[C@@H](O)[C@H](O[C@@H]5OC[C@@H](O[C@@H]6O[C@H](CO)[C@H](O)[C@H](O)[C@H]6O[C@@H]6O[C@H](C)[C@H](O)[C@H](O[C@@H]7O[C@@H](CO)[C@H](O)[C@H]7O)[C@H]6O)[C@H](O)[C@H]5O[C@@H]5O[C@H](C)[C@@H](O)[C@H](O)[C@H]5O)[C@H]4O)[C@H]4C[C@@H](OS(=O)(=O)[O-])CC[C@]4(C)C3=CC[C@@]21C.[Na+] [PSILASTEROSIDE] | inactive | 5.4 |

Reference: ChEMBL document CHEMBL1159360, “Bioactive asterosaponins from the starfish Luidia quinaria and Psilaster cassiope. Isolation and structure characterization by two-dimensional NMR spectroscopy” (J Nat Prod, 2003)
